Tests used:
physchem = conditions: buffer, pH 7.4
[1] = Tmax in Sprague-Dawley rat at 3 mg/kg; type: ADME, organism-based; parameters: dose 3 mg/kg; conditions: in vivo
[2] = AUC (0 to infinity) in Sprague-Dawley rat at 3 mg/kg; type: ADME, organism-based; parameters: dose 3 mg/kg, time infinity; conditions: plasma
[3] = Oral bioavailability in Sprague-Dawley rat at 3 mg/kg; type: ADME, organism-based; conditions: in vivo
[4] = Cmax in Sprague-Dawley rat at 3 mg/kg; type: ADME, organism-based; parameters: dose 3 mg/kg; conditions: in vivo
[5] = Half life in Sprague-Dawley rat at 1 mg/kg, iv; type: ADME, organism-based; parameters: dose 1 mg/kg, route intravenous; conditions: in vivo
[6] = Plasma clearance in Sprague-Dawley rat at 1 mg/kg, iv; type: ADME, organism-based; parameters: dose 1 mg/kg, route intravenous
[7] = AUC (0 to infinity) in Sprague-Dawley rat at 1 mg/kg, iv; type: ADME, organism-based; parameters: time infinity, dose 1 mg/kg, route intravenous; conditions: plasma
[8] = Volume of distribution at steady state in Sprague-Dawley rat at 1 mg/kg, iv; type: ADME, organism-based; parameters: dose 1 mg/kg, route intravenous; conditions: in vivo, read-out: Vdss

SMILES	logD (physchem)	further results
Cc1cccc(C#N)c1Oc1ccc2ncnc(Nc3ccn(C)n3)c2c1	3.4	–
Cc1csc(Nc2ncnc3ccc(Oc4ccc(F)cc4)cc23)n1	5.8	–
Cc1cccc(S(C)(=O)=O)c1Oc1ccc2ncnc(Nc3ccn(C)n3)c2c1	2.1	–
Cn1ccc(Nc2ncnc3ccc(Oc4ccccc4S(C)(=O)=O)cc23)n1	1.9	–
CS(=O)(=O)c1cccc(F)c1Oc1ccc2ncnc(Nc3cc[nH]n3)c2c1	1.8	–
Cn1ccc(Nc2ncnc3ccc(Oc4ccccn4)cc23)n1	2.1	–
Cn1ccc(Nc2ncnc3ccc(Oc4c(Cl)cccc4S(C)(=O)=O)cc23)n1	2.3	–
CN(C)C(=O)c1cccnc1Oc1ccc2ncnc(Nc3ccn(C)n3)c2c1	1.4	–
Cn1ccc(Nc2ncnc3ccc(Oc4ncccc4Br)cc23)n1	3.4	–
CS(=O)(=O)c1cccc(F)c1Oc1ccc2ncnc(Nc3ccccn3)c2c1	3.6	–
Cc1nsc(Nc2ncnc3ccc(Oc4c(F)cccc4S(C)(=O)=O)cc23)n1	3.1	–
Cn1ccc(Nc2ncnc3ccc(Oc4ncccc4F)cc23)n1	2.4	–
Cn1ccc(Nc2ncnc3ccc(Oc4c(F)cccc4S(C)(=O)=O)cc23)n1	1.9	Tmax [1]: 0.9 h; AUC(0-inf) [2]: 13.3 µM·h; bioavailability [3]: 71%; Cmax [4]: 5.8 µM; half-life [5]: 1.3 h; clearance [6]: 6.8 mL/min/kg; AUC(0-inf) [7]: 6.3 µM·h; Vd [8]: 0.5 L/kg
CS(=O)(=O)c1cccc(F)c1Oc1ccc2ncnc(Nc3cccnn3)c2c1	2	–
CS(=O)(=O)c1cccc(F)c1Oc1ccc2ncnc(Nc3cnccn3)c2c1	2.2	–
Cc1csc(Nc2ncnc3ccc(Oc4ccccc4S(C)(=O)=O)cc23)n1	4.3	–
CCn1ccc(Nc2ncnc3ccc(Oc4c(F)cccc4S(C)(=O)=O)cc23)n1	2.4	–
Cn1ccc(Nc2ncnc3ccc(Oc4ccncn4)cc23)n1	1.7	–
Cn1ccc(Nc2ncnc3ccc(Oc4ncccc4Cl)cc23)n1	2.9	–
Cn1ccc(Nc2ncnc3ccc(Oc4ncccc4CO)cc23)n1	1.7	–
Cc1cnc(Nc2ncnc3ccc(Oc4c(F)cccc4S(C)(=O)=O)cc23)cn1	2.5	–
Cc1csc(Nc2ncnc3ccc(Oc4ccccc4F)cc23)n1	5.8	–
Cn1ccc(Nc2ncnc3ccc(Oc4ccc(F)cc4F)cc23)n1	3.6	–
Cn1ccc(Nc2ncnc3ccc(Oc4c(F)cccc4F)cc23)n1	3.7	–

Reference: ChEMBL document CHEMBL1155212, “Discovery and structure-activity relationships of a novel class of quinazoline glucokinase activators” (Bioorg Med Chem Lett, 2009)
